Consider twelve compounds from ChEMBL document CHEMBL1201862, “PubChem BioAssay data set” (2004).

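Growth conditions: 96-well plates. Treatment: test compound, 48 hours, 5 concentrations. Analysis: linear interpolation between bracketing concentrations; unreached endpoints set to highest concentration. The concentration for 50% growth inhibition is given as GI50.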 The source made the active and inactive calls. No stated cut-off is given here; in the data, active = GI50 up to about 1.1 µM and inactive = higher.

Some test systems named below: NCI-H23; SK-OV-3; HL-60; UACC-62; 786-0; MCF7; HCT-116; DU-145; MDA-MB-435; NCI-H460; RPMI-8226; Malme-3M; SNB-75; HOP-62; RXF 393; LOX IMVI; K562; HCC 2998; Hs-578T; OVCAR-3.
Common to all, as to assay: NCI anticancer screen, dose series, 48 h

As for `C/C(=N\C1CCCCC1)c1ccccc1O`, the GI50 was > 100 µM (inactive) in the assay on NCI-H23; > 100 µM (inactive) in the assay on SK-OV-3; 56.1 µM (inactive) in the assay with HL-60; > 100 µM (inactive) with UACC-62; > 100 µM (inactive) with 786-0; > 100 µM (inactive) in the assay with MCF7. Moreover, the GI50 in the assay on HCT-116 is > 100 µM (inactive); in the assay with DU-145 it was > 100 µM (inactive); with MDA-MB-435, > 100 µM (inactive); in the assay with NCI-H460, > 100 µM (inactive); with RPMI-8226, 87.5 µM (inactive); in the assay on Malme-3M, > 100 µM (inactive). Also, the GI50 in the assay on SNB-75 was 57.5 µM (inactive); with HOP-62 it was > 100 µM (inactive); in the assay with RXF 393, > 100 µM (inactive); with LOX IMVI it was > 100 µM (inactive); with K562 it was > 100 µM (inactive).
Consider `COc1ccc(/C(C)=N/NC(=O)c2ccncc2)c(OC)c1`, for which the GI50 with NCI-H23, in the assay on SK-OV-3, in the assay on HCC 2998, in the assay on HL-60, in the assay on Hs-578T and with UACC-62 was > 10 µM (inactive) throughout. The GI50 with 786-0, in the assay on MCF7, in the assay with DU-145, in the assay on NCI-H460, in the assay on RPMI-8226 and in the assay on Malme-3M was > 10 µM (inactive) throughout. The GI50 with SNB-75, in the assay with HOP-62, with LOX IMVI and with K562 was > 10 µM (inactive) throughout.
With `CCCNC(=O)N(C)C(=O)N1N=C(c2ccccc2)C1c1ccccc1` (configuration not stated), the GI50 with NCI-H23 was > 100 µM (inactive); with SK-OV-3, > 100 µM (inactive); in the assay with HCC 2998, 60 µM (inactive); in the assay on UACC-62 it was 59.3 µM (inactive); in the assay on 786-0 it was > 100 µM (inactive); in the assay on MCF7, > 100 µM (inactive). Further, the GI50 with HCT-116 is 51.8 µM (inactive); in the assay with DU-145 it was > 100 µM (inactive); with MDA-MB-435, 95.7 µM (inactive); in the assay on RPMI-8226, 38.2 µM (inactive); in the assay on Malme-3M, 39.6 µM (inactive); in the assay with OVCAR-3, 61.7 µM (inactive). In addition, the GI50 was 54.3 µM (inactive) in the assay on SNB-75; > 100 µM (inactive) in the assay on HOP-62; > 100 µM (inactive) in the assay with RXF 393; 75.5 µM (inactive) in the assay with LOX IMVI; 49 µM (inactive) with K562.
Consider `COc1cccc(OC)c1NC(=O)C(=O)Nn1c(NNC(=O)c2ccncc2)nc2ccccc2c1=O`, for which the GI50 in the assay on NCI-H23, with SK-OV-3, in the assay with HCC 2998, in the assay on HL-60, with Hs-578T and with UACC-62 was > 100 µM (inactive) each time. Also, the GI50 with 786-0, with MCF7, in the assay with HCT-116, in the assay on MDA-MB-435, in the assay on NCI-H460 and in the assay with RPMI-8226 was > 100 µM (inactive) in each case. For the same compound, the GI50 in the assay on Malme-3M, in the assay on OVCAR-3, in the assay on SNB-75, in the assay on HOP-62, in the assay on RXF 393 and in the assay on LOX IMVI was > 100 µM (inactive) each time. Also, the GI50 with K562 is > 100 µM (inactive).
Regarding `CSc1nc(Cl)c2c(n1)Sc1nc3ccccc3n1N=C2`, the GI50 was 29.6 µM (inactive) in the assay with NCI-H23; > 100 µM (inactive) with SK-OV-3; 26.5 µM (inactive) in the assay on HCC 2998; 26.7 µM (inactive) with Hs-578T; 29.4 µM (inactive) in the assay with UACC-62; 28.2 µM (inactive) in the assay on 786-0. Also, the GI50 in the assay on HCT-116 was 25.1 µM (inactive); in the assay with DU-145, > 100 µM (inactive); in the assay with MDA-MB-435 it was 29.7 µM (inactive); in the assay with NCI-H460, 56 µM (inactive); in the assay with RPMI-8226 it was 21.6 µM (inactive); with Malme-3M it was 25.8 µM (inactive). In addition, the GI50 is 25.5 µM (inactive) in the assay with OVCAR-3; 25.9 µM (inactive) in the assay with SNB-75; 41.7 µM (inactive) with HOP-62; 22.6 µM (inactive) in the assay on RXF 393; 18.2 µM (inactive) in the assay on LOX IMVI; 21.3 µM (inactive) in the assay on K562.
Take `O=C1C2CCCCC2C(=O)N1n1c(Cc2ccc(Cl)cc2)n[nH]c1=O` (configuration not stated): the GI50 in the assay on NCI-H23, with SK-OV-3, in the assay with HCC 2998, in the assay with Hs-578T, with UACC-62 and in the assay with 786-0 was > 100 µM (inactive) throughout. Also, the GI50 in the assay on MCF7, in the assay on HCT-116, with MDA-MB-435, in the assay with NCI-H460, in the assay with RPMI-8226 and in the assay on Malme-3M was > 100 µM (inactive) throughout. The GI50 in the assay with OVCAR-3, with SNB-75, in the assay with HOP-62, with RXF 393, in the assay on LOX IMVI and in the assay with K562 was > 100 µM (inactive) in each case.
For the compound `COc1cc2c(cc1OCCCCCN1C(=O)c3cccc4cccc(c34)C1=O)N=C[C@@H]1CCCN1C2=O`, the GI50 in the assay with NCI-H23 was 0.222 µM (active); in the assay on SK-OV-3, 0.514 µM (active); in the assay with HCC 2998 it was 0.3 µM (active); with UACC-62, 0.13 µM (active); with 786-0, 0.249 µM (active); in the assay on MCF7, 0.181 µM (active). Further, the GI50 in the assay with HCT-116 was 0.215 µM (active); with DU-145, 0.255 µM (active); in the assay on MDA-MB-435, 0.167 µM (active); in the assay with NCI-H460 it was 0.316 µM (active); in the assay on RPMI-8226 it was 0.119 µM (active); with Malme-3M, 0.163 µM (active). The GI50 in the assay on OVCAR-3 is 0.184 µM (active); in the assay with SNB-75, 0.34 µM (active); with HOP-62, 0.262 µM (active); with RXF 393 it was 0.0647 µM (active); in the assay with LOX IMVI, 0.126 µM (active); with K562, 0.114 µM (active).
For `CC(C)(C)OC(=O)NC(CCCCNC(=O)OCc1ccccc1)C(=O)NC(CCCCNC(=O)OCc1ccccc1)C(=O)ON1C(=O)CCC1=O` (configuration not stated), the GI50 in the assay on NCI-H23, in the assay with HCC 2998, in the assay on HL-60, in the assay with Hs-578T, in the assay on UACC-62 and in the assay with 786-0 was > 100 µM (inactive) throughout. For the same compound, the GI50 in the assay with MCF7, with HCT-116, with RPMI-8226, in the assay on Malme-3M, in the assay with SNB-75 and with HOP-62 was > 100 µM (inactive) in each case. Besides, the GI50 with RXF 393 and in the assay on K562 was > 100 µM (inactive) each time.
Consider `CCOC(=O)C1=C(N2CCCC2)C(=O)C(C(=O)OCC)C1` (configuration not stated), for which the GI50 in the assay with NCI-H23, with SK-OV-3, in the assay on HCC 2998, with 786-0, with MCF7 and in the assay with HCT-116 was > 100 µM (inactive) in each case. In addition, the GI50 with MDA-MB-435, with NCI-H460, with RPMI-8226, with Malme-3M, in the assay on OVCAR-3 and in the assay on SNB-75 was > 100 µM (inactive) in each case. Besides, the GI50 in the assay with HOP-62, with RXF 393, in the assay on LOX IMVI and in the assay with K562 was > 100 µM (inactive) throughout.
In the case of `Nc1ccc2ccc(-c3ccc[nH]3)nc2n1`, the GI50 in the assay on NCI-H23, with SK-OV-3, in the assay on HCC 2998, in the assay on 786-0, with MCF7 and in the assay with HCT-116 was > 100 µM (inactive) throughout. For the same compound, the GI50 in the assay with MDA-MB-435, in the assay on NCI-H460, in the assay on RPMI-8226, in the assay with Malme-3M, in the assay with OVCAR-3 and in the assay on SNB-75 was > 100 µM (inactive) each time. In addition, the GI50 in the assay with HOP-62, with RXF 393 and in the assay on LOX IMVI was > 100 µM (inactive) each time.
For the compound `Cc1ccc(S(=O)(=O)Nn2c(S)c(C#N)c(-c3ccc([N+](=O)[O-])cc3)c(C#N)c2=O)cc1`, the GI50 in the assay on SK-OV-3 is 82 µM (inactive); in the assay with HCC 2998, 31.6 µM (inactive); in the assay on Hs-578T, 32.4 µM (inactive); in the assay with UACC-62, 25.8 µM (inactive); in the assay with 786-0, 20 µM (inactive); in the assay with MCF7 it was 25.6 µM (inactive). Besides, the GI50 in the assay on HCT-116 was 16.9 µM (inactive); in the assay on MDA-MB-435, 23.2 µM (inactive); in the assay on NCI-H460, 31 µM (inactive); in the assay with RPMI-8226, 16.4 µM (inactive); with Malme-3M, 61.5 µM (inactive); with SNB-75, 56.5 µM (inactive). Besides, the GI50 was 98.2 µM (inactive) in the assay with HOP-62, 39 µM (inactive) in the assay with RXF 393, 14.8 µM (inactive) with LOX IMVI and 21.2 µM (inactive) with K562.
`O=c1c2nc[nH]c2n(-c2ccccc2)c(=S)n1-c1ccccc1`: the GI50 with NCI-H23, with SK-OV-3, with HCC 2998, in the assay with HL-60, with UACC-62 and in the assay on 786-0 was > 100 µM (inactive) each time. The GI50 with MCF7, in the assay on HCT-116, in the assay on DU-145, with MDA-MB-435, in the assay with NCI-H460 and in the assay with RPMI-8226 was > 100 µM (inactive) throughout. In addition, the GI50 in the assay with OVCAR-3, in the assay with SNB-75, in the assay on HOP-62, in the assay on RXF 393, in the assay on LOX IMVI and with K562 was > 100 µM (inactive) throughout.
